Results published in US7557213B2, “Substituted quinolones and methods of use” (ChemoCentryx, Inc., priority 2005, dated 2009).

Biological target: T1, CCXCKR2 receptor (Homo sapiens, UniProt P25106)
T1 construct: expressed in transfected cells; host or cells: MDA-MB-435S transfected with pcDNA3.1(+)-hRDC1 and/or MCF-7 (endogenous receptor)
Experiment: Displacement of 125I-labeled SDF-1 from the CCXCKR2 receptor on MCF-7 and/or CCXCKR2-transfected MDA-MB-435S cells (radioligand binding, filtration)
Details: not given

T1 sequence (P25106 whole entry): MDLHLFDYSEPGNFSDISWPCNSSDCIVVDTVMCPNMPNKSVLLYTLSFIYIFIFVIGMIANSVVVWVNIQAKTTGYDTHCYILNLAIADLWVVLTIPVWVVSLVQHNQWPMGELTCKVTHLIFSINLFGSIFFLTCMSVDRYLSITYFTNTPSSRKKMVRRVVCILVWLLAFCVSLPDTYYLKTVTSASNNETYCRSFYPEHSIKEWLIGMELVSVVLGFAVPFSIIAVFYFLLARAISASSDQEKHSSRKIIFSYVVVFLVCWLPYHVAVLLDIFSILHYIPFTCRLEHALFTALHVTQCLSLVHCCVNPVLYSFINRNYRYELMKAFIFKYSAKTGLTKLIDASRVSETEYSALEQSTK

| SMILES | IC50 [nM] |
| --- | --- |
| Cc1ccc(C(=O)c2cn(Cc3cccc(F)n3)c3ccccc3c2=O)cc1C [Example 70] | < 100 |

Same assay, conditions: 125I SDF-1, 3 hr at 4° C., MCF-7 and/or MDA-MB-435S cells; read-out: Activity (concentration displacing at least 50% of the SDF-1 from the CCXCKR2 receptor)

| IC50 [nM] | SMILES |
| --- | --- |
| 100 to 500 | Cc1cc(C(=O)c2cn(Cc3cccc(Br)n3)c3ccccc3c2=O)c[n+]([O-])c1C [Example 112] |
| < 100 | CN(C)c1ccc(C(=O)c2cn(Cc3cccc(Br)n3)c3ccccc3c2=O)cc1 [Example 120] |
| < 100 | Cc1cccc(C(=O)c2cn(Cc3cccc(Br)n3)c3ccccc3c2=O)c1C [Example 103] |
| < 100 | Cc1ccc(C(=O)c2cn(Cc3ccc(C(F)(F)F)o3)c3ccccc3c2=O)cc1C [Example 65] |
| < 100 | Cc1ccc(C(=O)c2cn(Cc3ccccn3)c3ccccc3c2=O)cc1C [Example 8] |
| 500 to 20000 | Cc1ccc(C(=O)c2cn(Cc3cccnc3)c3ccccc3c2=O)cc1C [Example 10] |
| < 100 | COc1ccc(C(=O)c2cn(Cc3cccc(C#N)n3)c3ccccc3c2=O)cc1F [Example 211] |
| 500 to 20000 | Cc1ccc(C(=O)c2cn(Cc3cccnc3)c3cc4c(cc3c2=O)OCCO4)cc1C [Example 12] |
| < 100 | Cc1ccc(C(=O)c2cn(Cc3cccc(Br)n3)c3ccccc3c2=O)c(C)c1 [Example 101] |
| 100 to 500 | COc1ccc(C(=O)c2cn(Cc3cccc(C)n3)c3nc(C)c(C)cc3c2=O)cc1C [Example 192] |
| 100 to 500 | COc1ccc(C(=O)c2cn(Cc3cccc(N)n3)c3ccccc3c2=O)cc1C [Example 209] |
| < 100 | Cc1ccc(C(=O)c2cn(Cc3cccc(C)c3F)c3ccccc3c2=O)cc1C [Example 45] |
| 500 to 20000 | COc1ccc(C(=O)c2cn(Cc3cccc(C)n3)c3cccnc3c2=O)cc1C [Example 206] |
| < 100 | COc1cc(C(=O)c2cn(Cc3cccc(C)n3)c3ncccc3c2=O)ccc1Cl [Example 166] |
| 100 to 500 | Cc1cccc(Cn2cc(C(=O)c3ccccc3)c(=O)c3ccccc32)c1 [Example 18] |
| 500 to 20000 | Cc1cc(C(=O)c2cn(C(C)c3cccc(Br)n3)c3ccccc3c2=O)cnc1C (stereo not drawn) [Example 84] |
| < 100 | Cc1ccc(C(=O)c2cn(Cc3cccc(Br)n3)c3ccccc3c2=O)nc1C [Example 64] |
| < 100 | Cc1cccc(Cn2cc(C(=O)c3ccc(C(C)C)cc3)c(=O)c3cccnc32)n1 [Example 165] |
| < 100 | COc1ccc(C(=O)c2cn(Cc3cccc(Br)n3)c3ccccc3c2=O)cc1OC [Example 140] |
| < 100 | Cc1cccc(Cn2cc(C(=O)c3ccc(Cl)cc3)c(=O)c3ccccc32)n1 [Example 184] |
| < 100 | O=C(c1ccccc1C(=O)N1CCC1)c1cn(Cc2cccc(Br)n2)c2ccccc2c1=O [Example 171] |
| 100 to 500 | Cc1ccc2c(=O)c(C(=O)c3cnc(C)c(C)c3)cn(Cc3cccc(Br)n3)c2n1 [Example 146] |
| 500 to 20000 | O=C(c1ccc(CN2CCOCC2)cc1)c1cn(Cc2cccc(Br)n2)c2ccccc2c1=O [Example 123] |
| 500 to 20000 | Cc1cccc(Cn2cc(C(=O)c3cc(C)on3)c(=O)c3ccccc32)n1 [Example 208] |
| 500 to 20000 | CNC(=O)c1ccccc1C(=O)c1cn(Cc2cccc(Br)n2)c2ccccc2c1=O [Example 169] |
| < 100 | O=C(c1ccc(Cl)c(Cl)c1)c1cn(Cc2cccc(Br)n2)c2ccccc2c1=O [Example 100] |
| 100 to 500 | C[S+]([O-])c1ccc(C(=O)c2cn(Cc3cccc(Br)n3)c3ccccc3c2=O)cc1 (stereo not drawn) [Example 190] |

| IC50 [nM] | SMILES |
| --- | --- |
| 100 to 500 | Nc1cccc(Cn2cc(C(=O)c3ccc4c(c3)OCCO4)c(=O)c3ccccc32)n1 [Example 230] |
| < 100 | Cc1ccc(C(=O)c2cn(Cc3cscn3)c3ccccc3c2=O)cc1C [Example 31] |
| < 100 | Cc1cccc(Cn2cc(C(=O)c3ccccc3N3CCOCC3)c(=O)c3ccccc32)n1 [Example 205] |
| < 100 | Cc1ccc(C(=O)c2cn(Cc3cccc(Br)n3)c3ccccc3c2=O)nc1 [Example 151] |
| 100 to 500 | Cc1cc(Cn2cc(C(=O)c3ccc(C)c(C)c3)c(=O)c3ccccc32)no1 [Example 30, 3-(3,4-Dimethyl-benzoyl)-1-(5-methyl-isoxazol-3-ylmethyl)-1H-quinolin-4-one] |
| 100 to 500 | Cc1cccnc1C(=O)c1cn(Cc2cccc(Br)n2)c2ccccc2c1=O [Example 149] |
| < 100 | COc1ccc(C(=O)c2cn(Cc3cccc(C)n3)c3ccccc3c2=O)cc1C [Example 156] |
| < 100 | Cc1ccc(C(=O)c2cn(Cc3cccc(Br)n3)c3cccnc3c2=O)cc1C [Example 105] |
| < 100 | Cc1ccccc1C(=O)c1cn(Cc2cccc(Br)n2)c2ccccc2c1=O [Example 121] |
| < 100 | O=C(c1ccc2c(c1)OCCO2)c1cn(Cc2cccc(Br)n2)c2ncccc2c1=O [Example 175] |
| < 100 | COc1cc(C(=O)c2cn(Cc3cccc(Br)n3)c3ccccc3c2=O)ccc1Cl [Example 204] |
| 500 to 20000 | Cc1cc(C(=O)c2cn(Cc3cccc(C)n3)c3ccccc3c2=O)ccn1 [Example 25] |
| < 100 | COc1ccc(C(=O)c2cn(Cc3cccc(Cl)c3)c3ccccc3c2=O)cc1 [Example 243] |
| < 100 | COc1ccc(C(=O)c2cn(Cc3cccc(Br)n3)c3ccccc3c2=O)cc1C [Example 98] |
| 500 to 20000 | Cc1ccc(C(=O)c2cn(Cc3ccccc3C)c3cc4c(cc3c2=O)OCCO4)cc1C [Example 6] |
| < 100 | CSc1ccc(C(=O)c2cn(Cc3cccc(Br)n3)c3ccccc3c2=O)cc1 [Example 186] |
| 100 to 500 | O=C(c1ccc2c(c1)OCCO2)c1cn(Cc2cccc(C(F)(F)F)c2)c2ccccc2c1=O [Example 232] |
| < 100 | COc1ccc(C(=O)c2cn(Cc3cccc(Br)n3)c3ccccc3c2=O)c(C)c1 [Example 178] |
| 100 to 500 | O=C(c1ccc2c(c1)OCCO2)c1cn(Cc2cccc(C(F)(F)F)n2)c2ccccc2c1=O [Example 229] |
| < 100 | COc1ccc(C(=O)c2cn(Cc3cccc(Cl)c3)c3ccccc3c2=O)cn1 [Example 246] |
| < 100 | COc1ncc(C(=O)c2cn(Cc3cccc(Cl)c3)c3ccccc3c2=O)cc1C [Example 240] |
| 500 to 20000 | O=C(NC1CC1)c1ccccc1C(=O)c1cn(Cc2cccc(Br)n2)c2ccccc2c1=O [Example 170] |
| < 100 | Cc1cccc(Cn2cc(C(=O)c3ccc(C)c(C)c3)c(=O)c3ccc(C)nc32)n1 [Example 107] |
| 500 to 20000 | COc1ccc(C(=O)c2cn(Cc3cccc(Br)n3)c3ccccc3c2=O)cc1C(=O)N(C)C [Example 181] |
| 500 to 20000 | Cc1ccc(C(=O)c2c(C)n(Cc3cccc(Br)n3)c3ccccc3c2=O)cc1C [Example 72] |
| < 100 | O=C(c1ccc(Cl)s1)c1cn(Cc2cccc(Br)n2)c2ccccc2c1=O [Example 187] |
| < 100 | CN(C)c1ccc(C(=O)c2cn(Cc3cccc(Br)n3)c3ccccc3c2=O)cn1 [Example 197] |

| IC50 [nM] | SMILES |
| --- | --- |
| 100 to 500 | Cc1cccc(Cn2cc(C(=O)c3ccc(C(F)(F)F)nc3)c(=O)c3ccccc32)n1 [Example 177] |
| < 100 | Cc1ccc(C(=O)c2cn(Cc3cccc(C(F)(F)F)n3)c3ccccc3c2=O)cc1C [Example 66] |
| 100 to 500 | Cc1ccc(C(=O)c2cn(Cc3ccccn3)c3cc4c(cc3c2=O)OCO4)cc1C [Example 1] |
| 500 to 20000 | O=C(c1cccc(C2OCCCO2)c1)c1cn(Cc2cccc(Br)n2)c2ccccc2c1=O [Example 135] |
| < 100 | Cc1ccc2c(=O)c(C(=O)c3ccc4c(c3)OCCO4)cn(Cc3cccc(Br)n3)c2n1 [Example 142] |
| 500 to 20000 | O=C(c1cccnc1)c1cn(Cc2ccccc2F)c2ccccc2c1=O [Example 33] |
| < 100 | Cc1cccc(Cn2cc(C(=O)c3ccc4c(c3)OCCO4)c(=O)c3ccccc32)n1 [Example 157] |
| 500 to 20000 | Cc1ccc(C(=O)c2cn(Cc3cccc(C(=O)O)n3)c3ccccc3c2=O)cc1C [Example 83] |
| 500 to 20000 | Cc1ccc(C(=O)c2cn(Cc3ccccc3-c3cncnc3)c3ccccc3c2=O)cc1C [Example 95] |
| 100 to 500 | Cc1cccc(Cn2cc(C(=O)c3cnc4c(c3)OCCO4)c(=O)c3cc(C)c(C)nc32)n1 [Example 191] |
| 500 to 20000 | Cc1cccc(Cn2cc(C(=O)c3cnccn3)c(=O)c3ccccc32)n1 [Example 63] |
| 100 to 500 | COCCOc1ccc(C(=O)c2cn(Cc3cccc(Br)n3)c3ccccc3c2=O)cc1C [Example 127] |
| < 100 | COc1ccc(C(=O)c2cn(Cc3cccc(C(F)(F)F)n3)c3ccccc3c2=O)cc1F [Example 217] |
| < 100 | O=C(c1ccc2c(n1)CCCC2)c1cn(Cc2cccc(Br)n2)c2ccccc2c1=O [Example 89] |
| < 100 | COc1ccc(C(=O)c2cn(Cc3cccc(Br)n3)c3ccc(C)nc3c2=O)cc1C [Example 215] |
| < 100 | COc1ccc(C(=O)c2cn(Cc3cccc(C#N)n3)c3ccccc3c2=O)cc1C [Example 207] |
| < 100 | Cc1ccc(C(=O)c2cn(Cc3cccc(Br)n3)c3ccc(F)cc3c2=O)cc1C [Example 53] |
| < 100 | Cc1ccc(C(=O)c2cn(Cc3cccc(N)n3)c3ccccc3c2=O)nc1C [Example 90] |
| < 100 | CN(C)c1ccc(C(=O)c2cn(Cc3cccc(Cl)c3)c3ccccc3c2=O)cn1 [Example 245] |
| < 100 | Cc1ccc(C(=O)c2cn(Cc3cnccn3)c3ccccc3c2=O)cc1C [Example 57] |
| < 100 | O=C(c1ccc(Cl)nc1)c1cn(Cc2cccc(Br)n2)c2ccccc2c1=O [Example 188] |
| 100 to 500 | Cc1ccc(C(=O)c2cn(Cc3cccc(-c4ccccc4)n3)c3ccccc3c2=O)cc1C [Example 42] |
| < 100 | Cc1ccc(C(=O)c2cn(Cc3cccc(CCl)n3)c3ccccc3c2=O)cc1C [Example 108] |
| 500 to 20000 | Cc1cccc(Cn2cc(C(=O)c3cccnc3)c(=O)c3ccccc32)n1 [Example 35] |
| 500 to 20000 | O=C(c1ccncc1)c1cn(Cc2ccccn2)c2ccccc2c1=O [Example 16] |

| SMILES | IC50 [nM] |
| --- | --- |
| Cc1ccc(C(=O)c2cn(CCc3ccccc3)c3ccccc3c2=O)cc1C [Example 27, 3-(3,4-Dimethyl-benzoyl)-1-phenethyl-1H-quinolin-4-one] | 500 to 20000 |
